Measured values: patent publication US6642365B1, “Anti-(retro)viral conjugates of saccharides and acetamidino or guanidino compounds” (Yeda Research and Development Co. Ltd., priority 2001, dated 2003)
“Also recorded” adds a separate entry of the source.

Legend:
[1] = target: CXCR4 (Homo sapiens, UniProt P61073); settings: SDF-1α 20 ng/ml
[2] = test system: R5 strain Ba-L; experiment: Virus-binding assay, MT-4 cells; assay type: cell-based, HIV-1; settings: dose dependent; data not shown
Experimental: MT4 cells (5×10^5) were incubated with supernatant containing 1×10^5 pg of p24 antigen of wild type HIV-1 in the presence of different concentrations of the test compound. One hour after infection, cells were washed 3 times with PBS and p24 antigen bound to the cells was determined by a commercial ELISA test (Coulter, Spain).

[3] = target: CCR5 (Homo sapiens, UniProt P51681); experiment: RANTES-induced intracellular calcium signal in THP-1, CCR5+ cells; settings: data not shown
CCR5, sequence (P51681 whole entry, the tested form may be a part): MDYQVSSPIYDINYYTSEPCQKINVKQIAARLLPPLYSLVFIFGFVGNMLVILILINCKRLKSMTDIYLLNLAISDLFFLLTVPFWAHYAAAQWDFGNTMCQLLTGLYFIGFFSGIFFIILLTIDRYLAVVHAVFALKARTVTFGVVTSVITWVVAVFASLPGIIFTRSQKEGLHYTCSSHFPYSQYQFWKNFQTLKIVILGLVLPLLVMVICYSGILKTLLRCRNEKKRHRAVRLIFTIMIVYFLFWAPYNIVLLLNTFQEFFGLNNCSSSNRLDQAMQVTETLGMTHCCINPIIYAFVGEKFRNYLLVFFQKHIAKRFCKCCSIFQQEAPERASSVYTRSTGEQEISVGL

[4] = test system: rG15, rG15-rC15 duplex and truncated TAR RNA sequences; experiment: Gel-shift binding to short RNA oligonucleotides (specificity); settings: micromolar concentration range; data not shown
[5] = test system: TAR RNA; experiment: RNase A footprinting of TAR RNA; assay type: binding, HIV-1; settings: 1 μM TAR, 200 pM RNase A
Experimental: In a typical experiment 10 μl of 5 mM cacodylate buffer pH 6.5, containing 25 mM KCl and 50-100 ng 5′ ^32P-labeled TAR RNA (approximately 0.5-1 μM) were incubated with 200 pM RNase A (Sigma) at room temperature for 10 minutes in the presence of Tat R52 and the conjugates of the invention at various concentrations. In the competition experiments, the mixture was supplemented with 0.5 μg yeast tRNA (Sigma). After the incubation, 10 μl of formamide/bromphenol blue loading buffer was added to the samples. The samples were heated to 80° C. for 2 min and were resolved by electrophoresis on 40 cm×0.8 mm 20% polyacrylamide denaturing gel (7M urea) for 3 hours at 55° C. The results were visualized by a phosphoimager as described above and quantitated using ImageQuant software.
TAR RNA and RNase A concentrations were established by co-titration. To produce a “single-hit” kinetics conditions, 1 μM TAR versus 200 pM RNase A were selected. Tat R52 and AAC concentrations were determined by titration. […] RNase A cleaved TAR RNA in an uneven manner (FIG. 4A., lane 2). The most susceptible regions for cleavage were the single-stranded loop, nucleotides U31-G34 as well as C24 and U25 of the bulge. Strong cleavage was also observed at G21-G41 and A20-U42 pairs (lower stem). Binding of R52 (2-4 μM) caused a weakening of the bands in the upper stem region, (G26-C39, A27-C38, as well as U40) (FIG. 4A., lanes 3, 4). At 4 μM R52, the cleavage at G34 (loop) was enhanced, as well as a certain enhancement of bands A20, G21, U23 and U25 was observed. Remarkably, the band corresponding to the R52-TAR complex still was observed on the gels even after electrophoresis under strongly denaturing conditions. In the presence of R4K (10-20 μM), the upper stem (G26-C29), the lower stem and the bulge (G21-U23, partially C24 and U25) were protected as well as C38, C39 and U40. Cleavage at C19 and A20 of the lower stem and C30, G33 and G34 of the loop was enhanced by 10 μM R4K, whereas with 20 μM R4K the protection of C30, G34 and A20-G21 was observed (FIG. 4A., lanes 5, 6). […] Cleavages at C19-A20 in the lower stem as well as at G30 and G34 in the loop were observed (FIG. 4A., lanes 7, 8). In the presence of GB4K (20 μM) no significant protection was observed.

[6] = test system: TAR RNA; experiment: Gel-shift binding to TAR RNA; design: species or system HIV-1; settings: for Kd: CD50 normalized to the reported conditions (Calnan et al., 1991 b), read-out: apparent Kd; for effect of ten-fold excess of yeast tRNA on complex formation with TAR: ten-fold excess of tRNA (100 ng per lane)
Experimental: The model Tat peptide (R52: […]) was prepared by the Weizmann Institute Chemical Services and was purified by reverse phase HPLC (C-18) (Lapidot et al., 1995). […] The RNA was transcriptionally labeled with α-^32P UTP, purified on a 12% polyacrylamide/7M urea gel (19:1 acrylamide:bis-acrylamide) and was eluted from the gel by 0.5M ammonium acetate, 10 mM magnesium acetate, 1 mM EDTA and 0.1% SDS. The sample was subjected to phenol extraction and the RNA was precipitated from 70% ethanol. Purified RNA was dissolved in diethyl pyrocarbonate-treated water (DEPC water), its concentration was determined by UV absorption at 260 nm and the specific radioactivity was determined by scintillation counting on a LS 1701 “Bruker” counter.
To study the affinity of the test compounds to TAR, gel-shift and gel-shift inhibition experiments were performed. The binding reaction mixtures (20 μl) contained ^32P-labeled TAR (18-44) RNA oligonucleotide (3-6 nM) and Tat R52 peptide (35-75 nM) in a binding buffer (10 mM Tris-HCl pH 7.5, 70 mM NaCl, 0.2 mM EDTA and 5% glycerol). The reaction mixtures were incubated for 10 minutes on ice and resolved by electrophoresis on a 10% non-denaturing polyacrylamide gel (40:1 acrylamide:bis-acrylamide) at 200V, for 3 h at 4° C. Gels were dried and visualized by autoradiography. Quantitations were obtained by optical densitometry of films. Alternatively, results were visualized by exposing the wet gels to Fuji phosphoimager plates, which were read on a “Storm 820” (Molecular Dynamics) phosphoimager. […]
Binding of aminoglycoside-arginine conjugates (AAC) to TAR RNA was measured by adding varying concentrations of each conjugate to reaction mixtures (20 μl) which contained 12 nM ^32P-labeled TAR RNA. The reactions were analyzed as described above.

[7] = test system: HIV-1 NL4-3; experiment: Anti-HIV assay, MTT, MT-4 cells; assay type: cell-based
Experimental: (§1) The HIV-1 strains NL4-3 and Ba-L and the CD4^+lymphocytic cell lines SUP-T1, MT-4 and MT-2 and P4-CCR5 MAGI cells were obtained from the MRC AIDS reagent program or the NIH, AIDS Research and Reference Reagent Program.
(§2) The cells were infected by incubation with different titers of the HIV-1 strains for 2 hrs at 37° C. in the presence or absence of the AAC of the invention. Then the cells were washed from the virus by centrifugation at 400 g and the supernatants were discarded. The cells were resuspended in culture medium, supplemented with different concentrations of the test compounds. The cells were allowed to proliferate for 5 days, the number of viable cells was quantified by a tetrazolium-based colorimetric method (CellTiter 96® AQueous One solution Cell Proliferation Assay, Promega). Anti-HIV activity in P4-CCR5 MAGI cells was done as follows: cells (1×10^5/ml) were infected with 10 ng/ml of p24 antigen of HIV-1 Ba-L in the presence of varying concentrations of the test compound. 24 hours post infection, cells were washed twice with PBS and resuspended in the medium containing the appropriate drug concentration. Five days after infection the cells were washed with PBS and evaluated for β-galactosidase activity.

[8] = test system: HIV-1 Ba-L; experiment: Anti-HIV assay, β-galactosidase activity in P4-CCR5 MAGI cells; assay type: cell-based
Experimental: as §1, §2

CXCR4, sequence (P61073 whole entry): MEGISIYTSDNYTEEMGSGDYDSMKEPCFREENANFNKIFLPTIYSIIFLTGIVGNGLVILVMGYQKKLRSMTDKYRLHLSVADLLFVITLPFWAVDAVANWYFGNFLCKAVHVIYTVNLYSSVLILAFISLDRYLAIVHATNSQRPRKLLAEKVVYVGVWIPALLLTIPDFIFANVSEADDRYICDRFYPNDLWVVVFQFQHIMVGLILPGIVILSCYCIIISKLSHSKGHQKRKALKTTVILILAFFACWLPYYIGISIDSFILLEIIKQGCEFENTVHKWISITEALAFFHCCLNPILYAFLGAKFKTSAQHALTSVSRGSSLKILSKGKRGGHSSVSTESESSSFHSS

Molecule | SDF-1α-dependent Ca2+ signal [1] | binding of the R5 strain Ba-L to MT-4 cells [2] | intracellular Ca2+ signal induced by RANTES [3] | binding to short RNA oligonucleotides [4] | concentration giving effective protection of TAR [5] | CD50 ([6]; 50% binding, TAR RNA 12 nM) | Kd [6] | effect of ten-fold excess of yeast tRNA on complex formation with TAR [6] | EC50 [7] | EC50 [8] | CD50 ([6]; 12 nM 32P-labeled TAR)
Triargininamido-gentamicin conjugate [R3G] | inhibited; also recorded: blocked | inhibited the binding | did not inhibit | did not display any binding | 4 µM | ~500 nM | 0.083 µM | do not inhibit the binding | 15 µM | 29 µM | –
N=C(N)NCCCC(N)C(=O)NCC1OC(OC2C(NC(=O)C(N)CCCNC(=N)N)CC(NC(=O)C(N)CCCNC(=N)N)C(OC3OC(CO)C(O)C(NC(=O)C(N)CCCNC(=N)N)C3O)C2O)C(O)C(O)C1O (stereo not drawn) [R4K, Tetraargininamido-kanamycin A conjugate] | inhibited; also recorded: blocked | inhibited the binding | did not inhibit | did not display any binding | 10 µM | 2500 nM | 0.416 µM | do not inhibit the binding | 31 µM | > 113 µM | 2500 nM
